Columns and labels:
[1] = target: Neuronal acetylcholine receptor; alpha4/beta2 (Rattus norvegicus, UniProt P09483+P12390); assay: Displacement of [3H]epibatidine from rat recombinant alpha-4-beta-2 nAChR in HEK293 cell line; type: cell-based; conditions: for pKi: hek293; for Ki: read-out: Ki
[2] = target: T1, Neuronal acetylcholine receptor; alpha3/beta4 (Rattus norvegicus, UniProt P04757+P12392); assay: Displacement of [3H]epibatidine from recombinant rat alpha-3-beta-4 nAChr in HEK293 cell line; type: cell-based; conditions: for pKi: hek293
T1 sequence (P04757 whole entry): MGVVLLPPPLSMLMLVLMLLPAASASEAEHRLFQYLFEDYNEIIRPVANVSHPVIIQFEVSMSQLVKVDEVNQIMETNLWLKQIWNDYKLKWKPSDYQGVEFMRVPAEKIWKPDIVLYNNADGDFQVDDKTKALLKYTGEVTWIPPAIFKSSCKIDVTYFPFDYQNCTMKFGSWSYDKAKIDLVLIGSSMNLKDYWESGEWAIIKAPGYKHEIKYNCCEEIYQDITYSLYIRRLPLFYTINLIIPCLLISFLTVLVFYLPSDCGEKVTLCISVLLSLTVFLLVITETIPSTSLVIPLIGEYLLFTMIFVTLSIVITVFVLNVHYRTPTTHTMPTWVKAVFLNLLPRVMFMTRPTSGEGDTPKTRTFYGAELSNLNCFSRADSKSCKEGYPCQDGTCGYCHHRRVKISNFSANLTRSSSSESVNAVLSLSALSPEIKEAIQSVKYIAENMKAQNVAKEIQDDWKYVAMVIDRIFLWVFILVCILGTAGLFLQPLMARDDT
T1 sequence (P12392 whole entry): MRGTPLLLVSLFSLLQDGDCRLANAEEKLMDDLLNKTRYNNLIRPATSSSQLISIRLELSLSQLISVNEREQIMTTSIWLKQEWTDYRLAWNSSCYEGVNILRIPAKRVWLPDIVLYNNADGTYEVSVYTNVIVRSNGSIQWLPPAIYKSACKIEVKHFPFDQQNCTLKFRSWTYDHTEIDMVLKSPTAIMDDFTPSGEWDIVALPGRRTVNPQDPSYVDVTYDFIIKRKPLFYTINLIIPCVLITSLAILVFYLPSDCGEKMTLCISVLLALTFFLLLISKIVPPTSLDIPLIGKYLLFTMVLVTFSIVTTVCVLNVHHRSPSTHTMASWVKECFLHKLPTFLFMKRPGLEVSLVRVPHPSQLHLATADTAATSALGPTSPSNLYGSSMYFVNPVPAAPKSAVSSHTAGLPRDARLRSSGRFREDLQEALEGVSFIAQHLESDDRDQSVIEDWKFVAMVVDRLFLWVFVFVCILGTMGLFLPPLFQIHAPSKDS

[3] = target: Neuronal acetylcholine receptor; alpha4/beta4 (Rattus norvegicus, UniProt P09483+P12392); assay: Displacement of [3H]epibatidine from recombinant rat alpha-4-beta-4 nAChr in HEK293 cell line; type: cell-based; conditions: for pKi: hek293
Sequence of Neuronal acetylcholine receptor; alpha4/beta4 (P09483 whole entry): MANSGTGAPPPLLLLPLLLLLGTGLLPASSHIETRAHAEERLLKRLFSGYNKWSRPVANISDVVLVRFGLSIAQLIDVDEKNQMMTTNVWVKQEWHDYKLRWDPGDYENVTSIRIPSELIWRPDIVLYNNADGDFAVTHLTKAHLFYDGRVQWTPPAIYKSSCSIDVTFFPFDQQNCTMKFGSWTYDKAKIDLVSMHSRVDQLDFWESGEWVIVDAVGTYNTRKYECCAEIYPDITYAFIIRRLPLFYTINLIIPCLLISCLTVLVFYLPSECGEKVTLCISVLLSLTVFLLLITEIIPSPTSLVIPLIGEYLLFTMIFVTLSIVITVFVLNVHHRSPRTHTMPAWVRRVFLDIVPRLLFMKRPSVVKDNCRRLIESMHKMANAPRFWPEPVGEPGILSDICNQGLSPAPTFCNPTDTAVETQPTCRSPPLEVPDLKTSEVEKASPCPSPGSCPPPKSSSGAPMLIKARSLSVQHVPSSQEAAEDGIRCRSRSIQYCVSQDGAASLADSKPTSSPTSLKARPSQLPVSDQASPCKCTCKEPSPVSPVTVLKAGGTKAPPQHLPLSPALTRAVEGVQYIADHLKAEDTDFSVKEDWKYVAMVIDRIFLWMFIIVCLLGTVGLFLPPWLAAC
Sequence of Neuronal acetylcholine receptor; alpha4/beta4 (P12392 whole entry): as the sequence (P12392 whole entry) above

[4] = target: T2, Neuronal acetylcholine receptor subunit alpha-7 (Homo sapiens, UniProt P36544); assay: Displacement of [3H]methyllycaconitine from human alpha-7 in tsA201 cells coexpressed with 5HT3A receptor; type: cell-based
T2 sequence (P36544 whole entry): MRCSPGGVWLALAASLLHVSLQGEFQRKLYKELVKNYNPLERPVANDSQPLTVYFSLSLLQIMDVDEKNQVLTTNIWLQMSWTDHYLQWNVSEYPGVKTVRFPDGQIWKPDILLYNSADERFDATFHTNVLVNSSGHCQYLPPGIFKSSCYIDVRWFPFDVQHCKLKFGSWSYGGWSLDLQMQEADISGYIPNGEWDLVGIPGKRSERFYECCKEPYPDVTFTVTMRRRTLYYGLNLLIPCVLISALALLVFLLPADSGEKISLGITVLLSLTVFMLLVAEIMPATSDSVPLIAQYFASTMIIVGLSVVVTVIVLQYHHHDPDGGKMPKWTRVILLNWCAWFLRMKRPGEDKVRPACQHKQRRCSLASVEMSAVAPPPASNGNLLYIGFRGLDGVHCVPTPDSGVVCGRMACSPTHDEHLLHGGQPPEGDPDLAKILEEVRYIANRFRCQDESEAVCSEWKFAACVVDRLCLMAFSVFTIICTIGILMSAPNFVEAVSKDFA

[5] = target: T2, Neuronal acetylcholine receptor subunit alpha-7; assay: Displacement of [3H]methyllycaconitine from alpha7 nAChR in tsA201 cells co-expressed with Ric3; type: cell-based
[6] = target: T3, 5-hydroxytryptamine receptor 3A (Homo sapiens, UniProt P46098); assay: Displacement of [3H]GR65630 from human 5HT3A receptor in HEK293 cells; type: cell-based; conditions: for pKi: hek293
T3 sequence (P46098 whole entry): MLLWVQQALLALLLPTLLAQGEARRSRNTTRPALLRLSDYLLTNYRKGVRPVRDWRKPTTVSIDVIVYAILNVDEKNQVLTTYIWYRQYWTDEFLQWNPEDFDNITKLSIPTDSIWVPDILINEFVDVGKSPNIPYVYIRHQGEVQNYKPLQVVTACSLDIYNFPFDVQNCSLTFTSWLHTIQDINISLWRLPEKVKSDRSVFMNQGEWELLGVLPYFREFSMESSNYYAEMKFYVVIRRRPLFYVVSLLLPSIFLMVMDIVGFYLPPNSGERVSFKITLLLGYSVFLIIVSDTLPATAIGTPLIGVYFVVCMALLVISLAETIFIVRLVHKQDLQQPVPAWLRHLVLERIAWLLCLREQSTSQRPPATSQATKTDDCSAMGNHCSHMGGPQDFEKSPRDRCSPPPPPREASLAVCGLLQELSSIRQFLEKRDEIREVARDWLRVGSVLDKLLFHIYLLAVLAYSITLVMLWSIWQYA

[7] = target: T2, Neuronal acetylcholine receptor subunit alpha-7; assay: Antagonist activity at human alpha-7 nAChR in tsA201 cells coexpressed with Ric3 by FMP assay; type: functional, cell-based
[8] = target: T1, Neuronal acetylcholine receptor; alpha3/beta4; assay: Antagonist activity at rat alpha3beta4 nAChR expressed in HEK293 cells by FMP assay; type: functional, cell-based, Homo sapiens; conditions: for pIC50: hek293
[9] = target: T3, 5-hydroxytryptamine receptor 3A; assay: Antagonist activity at human 5HT3A receptor expressed in HEK293 cells by FMP assay; type: functional, cell-based
cells = type: functional, cell-based; conditions: Homo sapiens, HEK293
[10] = target: T4, Glycine receptor subunit alpha-1 (Homo sapiens, UniProt P23415); assay: Antagonist activity at human glycine alpha-1 receptor in HEK293 cells by FMP assay; type: functional, cell-based; conditions: for pIC50: hek293
T4 sequence (P23415 whole entry): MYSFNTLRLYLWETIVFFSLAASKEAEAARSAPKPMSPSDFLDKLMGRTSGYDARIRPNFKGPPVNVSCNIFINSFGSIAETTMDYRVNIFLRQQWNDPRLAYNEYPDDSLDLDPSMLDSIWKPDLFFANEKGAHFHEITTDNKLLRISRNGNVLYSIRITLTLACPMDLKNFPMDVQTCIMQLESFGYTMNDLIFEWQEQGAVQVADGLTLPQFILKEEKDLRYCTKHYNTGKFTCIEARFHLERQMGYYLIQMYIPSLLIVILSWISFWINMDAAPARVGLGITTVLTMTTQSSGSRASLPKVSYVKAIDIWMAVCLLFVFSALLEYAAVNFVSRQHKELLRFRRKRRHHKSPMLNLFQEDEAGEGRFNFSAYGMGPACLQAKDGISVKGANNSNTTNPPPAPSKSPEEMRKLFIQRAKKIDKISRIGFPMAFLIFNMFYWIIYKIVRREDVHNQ

Sequence of Neuronal acetylcholine receptor; alpha4/beta2 (P09483 whole entry): as the sequence (P09483 whole entry) above
Sequence of Neuronal acetylcholine receptor; alpha4/beta2 (P12390 whole entry): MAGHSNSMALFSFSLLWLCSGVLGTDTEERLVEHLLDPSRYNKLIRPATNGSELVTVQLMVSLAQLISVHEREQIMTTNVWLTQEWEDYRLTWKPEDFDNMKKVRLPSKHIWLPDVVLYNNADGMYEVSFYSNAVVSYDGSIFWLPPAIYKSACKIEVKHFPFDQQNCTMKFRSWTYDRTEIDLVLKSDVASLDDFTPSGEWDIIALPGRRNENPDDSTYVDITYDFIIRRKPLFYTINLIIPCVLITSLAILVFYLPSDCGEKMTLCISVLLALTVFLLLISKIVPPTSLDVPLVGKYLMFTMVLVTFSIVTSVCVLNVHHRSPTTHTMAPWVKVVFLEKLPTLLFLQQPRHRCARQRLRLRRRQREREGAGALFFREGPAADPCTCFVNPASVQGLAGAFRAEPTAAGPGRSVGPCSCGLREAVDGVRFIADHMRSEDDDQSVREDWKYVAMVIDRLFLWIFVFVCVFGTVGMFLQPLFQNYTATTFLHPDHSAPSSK

SMILES	pKi [1]	Ki [1] [µM]	Ki [2] [µM]	pKi [2]	Ki [3] [µM]	pKi [3]	Ki ([4]; read-out: Ki) [µM]	Ki ([4]; read-out: pKi (converted)) [µM]	Ki ([5]; read-out: Ki) [µM]	Ki ([5]; read-out: pKi (converted)) [µM]	Ki [6] [µM]	IC50 ([7]; read-out: IC50) [µM]	IC50 ([7]; read-out: pIC50 (converted)) [µM]	IC50 ([8]; read-out: IC50) [µM]	IC50 ([9]; read-out: IC50) [µM]	IC50 (cells; read-out: IC50) [µM]	IC50 (cells; read-out: pIC50 (converted)) [µM]	IC50 [10] [µM]	pIC50 [10]	also measured
Brc1ccc(C[N+]23CC[C@@H]4[C@@H]5[C@@H]6[C@@H](OCC=C(C2)[C@@H]6C[C@@H]43)N2c3ccccc3[C@@]34CC[N+]6(Cc7ccc(Br)cc7)CC7=CCO[C@H]([C@@H]([C@H]23)[C@H]7C[C@@H]46)N5c2ccccc2)cc1.[Br-].[Br-] (stereo partly drawn)	< 4	> 100	> 100	< 4	> 100	< 4	0.26	0.251	0.64	0.631	5.7	10	10.5	> 100	30	> 100	> 100	> 100	< 4	pIC50 [8]: < 4
C/C=C/C[N+]12CC[C@@H]3[C@@H]4[C@@H]5[C@@H](OCC=C(C1)[C@@H]5C[C@@H]32)N1c2ccccc2[C@@]23CC[N+]5(C/C=C/C)CC6=CCO[C@H]([C@@H]([C@H]12)[C@H]6C[C@@H]35)N4c1ccccc1.[Br-].[Br-] (stereo partly drawn)	< 4	> 100	100	–	> 100	< 4	0.23	0.251	0.1	–	15	1.1	1.15	100	100	> 100	> 100	> 100	< 4	pKi ([5]; tsa201): 7
C1=C2CN3CC[C@@H]4[C@@H]5[C@H]([C@@H](OC1)N1c6ccccc6[C@@]67CCN8CC9=CCO[C@H]([C@@H]([C@H]16)[C@H]9C[C@H]87)N5c1ccccc1)[C@H]2C[C@@H]43	< 4	> 100	30	–	> 100	< 4	1.1	–	1.1	1	3.1	1.6	1.58	11	11	> 100	> 100	> 100	< 4	IC50 ([9]; read-out: pIC50 (converted)): 12.6 µM
C1=C2C[N+]3(Cc4ccc5ccccc5c4)CC[C@@H]4[C@@H]5[C@H]([C@@H](OC1)N1c6ccccc6[C@@]67CC[N+]8(Cc9ccc%10ccccc%10c9)CC9=CCO[C@H]([C@@H]([C@H]16)[C@H]9C[C@@H]78)N5c1ccccc1)[C@H]2C[C@@H]43 (stereo partly drawn)	–	–	–	–	–	–	0.36	0.316	0.71	0.631	–	–	–	–	–	–	–	–	–	–
OC/C=C1/C[N+]2(C3C=CCCC3)CC[C@@H]3[C@@H]4/C(=C\N5c6ccccc6[C@@]67CC[N+]8(C9C=CCCC9)CC9=CCO[C@H]([C@@H]([C@H]56)[C@H]9C[C@@H]78)N4c4ccccc4)[C@H]1C[C@@H]32.[Br-].[Br-] (stereo partly drawn)	< 4	> 100	100	–	> 100	< 4	0.36	0.316	0.23	0.251	40	2.3	2.34	30	30	> 100	> 100	> 100	< 4	–
C[N+](C)(Cc1ccc([N+](=O)[O-])cc1)Cc1c2n(c3ccccc13)Cc1c(C[N+](C)(C)Cc3ccc([N+](=O)[O-])cc3)c3ccccc3n1C2.[Br-].[Br-]	< 4	> 100	> 100	< 4	> 100	< 4	2.1	2	3.9	3.98	> 100	30	100	> 100	30	> 100	> 100	> 100	< 4	pKi [6]: < 4; pIC50 [8]: < 4
C=CC[N+]12CC[C@@]34c5ccccc5N5/C=C6/[C@H]7C[C@H]8[C@@]9(CC[N@@+]8(CC=C)C/C7=C/CO)c7ccccc7N(/C=C(/[C@@H](C[C@@H]31)/C(=C\CO)C2)[C@H]54)[C@@H]69 (stereo partly drawn)	< 4	> 100	3.2	–	> 100	< 4	2.1	2	1.1	1	> 100	4.1	4.07	18	> 100	> 100	> 100	> 100	< 4	pKi [6]: < 4; IC50 ([8]; read-out: pIC50 (converted)): 15.8 µM; pIC50 ([9]; hek293): < 4
C=CC[N+]12CC[C@@H]3[C@@H]4[C@@H]5[C@@H](OCC=C(C1)[C@@H]5C[C@@H]32)N1c2ccccc2[C@@]23CCN5CC6=CCO[C@H]([C@@H]([C@H]12)[C@H]6C[C@H]53)N4c1ccccc1.[Br-] (stereo partly drawn)	< 4	> 100	> 100	< 4	> 100	< 4	0.071	–	0.055	0.0501	19	0.34	0.339	30	30	> 100	> 100	> 100	< 4	–
C1=C2C[N+]3(Cc4ccccc4)CC[C@@H]4[C@@H]5[C@H]([C@@H](OC1)N1c6ccccc6[C@@]67CC[N+]8(Cc9ccccc9)CC9=CCO[C@H]([C@@H]([C@H]16)[C@H]9C[C@@H]78)N5c1ccccc1)[C@H]2C[C@@H]43.[Br-].[Br-] (stereo partly drawn)	< 4	> 100	> 100	< 4	> 100	< 4	0.2	0.2	0.25	0.251	100	4.5	4.47	> 100	100	> 100	> 100	> 100	< 4	pIC50 [8]: < 4
OC/C=C1/CN2CC[C@H]3[C@@H]2C[C@@H]1/C1=C/N2c4ccccc4[C@@]45CCN6CC7=CCO[C@H]([C@@H]([C@H]24)[C@H]7C[C@H]65)N(c2ccccc2)[C@@H]13	< 4	> 100	30	–	> 100	< 4	1.2	1.26	1.7	1.58	1.9	1.5	1.51	16	2.5	> 100	> 100	> 100	< 4	–
CN(C)Cc1c2n(c3ccccc13)Cc1c(CN(C)C)c3ccccc3n1C2	< 4	> 100	> 100	< 4	> 100	< 4	19	20	5.4	5.01	> 100	–	–	–	–	–	–	–	–	pKi [6]: < 4

Reference: ChEMBL document CHEMBL1148788 (J Med Chem, 2007)
